Assay results as given in ChEMBL document CHEMBL1955749, “Synthesis and anti-influenza activity of aminoalkyl rupestonates” (Bioorg Med Chem Lett, 2012).
The source made the active and inactive calls. The rule behind the calls is not given here.

How the values were obtained:
[1] = Cytotoxicity against MDCK cells; format: cell-based, Canis lupus familiaris; conditions: dog, read-out: TC50 (the source's name)
Influenza A virus [2] = experiment: Antiinfluenza activity against influenza A virus H3N2 infected in MDCK cells assessed as inhibition of virus-induced cytopathic effect after 36 hrs; format: functional, organism-based
Influenza A virus [3] = experiment: Antiinfluenza activity against influenza A virus H1N1 infected in MDCK cells assessed as inhibition of virus-induced cytopathic effect after 36 hrs; format: functional, organism-based
Influenza B virus [4] = experiment: Antiinfluenza activity against influenza B virus infected in MDCK cells assessed as inhibition of virus-induced cytopathic effect after 36 hrs; format: functional, organism-based
[5] = Selectivity index, ratio of TC50 for MDCK cells to IC50 for influenza A virus H1N1; format: toxicity, cell-based; conditions: dog, read-out: Selectivity Index
[6] = Selectivity index, ratio of TC50 for MDCK cells to IC50 for influenza A virus H3N2; format: toxicity, cell-based; conditions: dog, read-out: Selectivity Index
Influenza A virus [7] = experiment: Antiinfluenza activity against influenza A virus; format: functional, organism-based
[8] = Selectivity index, ratio of TC50 for MDCK cells to IC50 for influenza B virus; format: toxicity, cell-based; conditions: dog, read-out: Selectivity Index
Influenza A virus [9] = experiment: Antiinfluenza activity against influenza A virus H3N2 infected in MDCK cells assessed as inhibition of virus-induced cytopathic effect at 0.15 to 1.37 ug/ml after 36 hrs; format: functional, organism-based
Influenza B virus [10] = experiment: Antiinfluenza activity against influenza B virus; format: functional, organism-based
Influenza A virus [11] = experiment: Antiinfluenza activity against influenza A virus H1N1; format: functional, organism-based
Influenza A virus [12] = experiment: Antiinfluenza activity against influenza A virus H3N2; format: functional, organism-based

SMILES	CC50 [1] [µM]	IC50 (Influenza A virus [2]) [µM]	IC50 (Influenza A virus [3]) [µM]	IC50 (Influenza B virus [4]) [µM]	selectivity ratio [5]	selectivity ratio [6]	IC50 (Influenza A virus [7]) [µM]	selectivity ratio [8]	inhibition (Influenza A virus [9])	IC50 (Influenza B virus [10]) [µM]	IC50 (Influenza A virus [11]) [µM]	IC50 (Influenza A virus [12]) [µM]
C=C(C(=O)OCCCCCCN1CCN(c2ccccc2)CC1)[C@@H]1CC[C@H](C)[C@@H]2CC(=O)C(C)=C2C1	394	> 56.5	> 56.5	> 56.5								
C=C(C(=O)OCCCn1cncn1)[C@@H]1CC[C@H](C)[C@@H]2CC(=O)C(C)=C2C1	311	34.6	24	> 34.6	13	9						
C=C(C(=O)OCCCN1CCN(c2ccccc2)CC1)[C@@H]1CC[C@H](C)[C@@H]2CC(=O)C(C)=C2C1	171	57.1	63.9	> 11.2	2.7	3						
C=C(C(=O)O)[C@@H]1CC[C@H](C)[C@@H]2CC(=O)C(C)=C2C1c1ccc(C(C)(C)C)cc1 (stereo partly specified)							0.5					
C=C(C(=O)OCCCCCCBr)[C@@H]1CC[C@H](C)[C@@H]2CC(=O)C(C)=C2C1	469	52.1	39.6	52.1	11.8	9		9				
C=C(C(=O)OCCCCCN1CCN(c2ccccc2)CC1)[C@@H]1CC[C@H](C)[C@@H]2CC(=O)C(C)=C2C1	112	> 25.7	20	> 25.8	5.6							
C=C(C(=O)O)[C@@H]1CC[C@H](C)[C@@H]2CC(=O)C(C)=C2C1 [PECHUELOIC ACID]	4650	25.8	> 1340	> 4030		181						
C=C(C(=O)OCCCCBr)[C@@H]1CC[C@H](C)[C@@H]2CC(=O)C(C)=C2C1	420	75.2	75.2	67.2	5.6	5.6		6.2				
C=C(C(=O)OCCCCCBr)[C@@H]1CC[C@H](C)[C@@H]2CC(=O)C(C)=C2C1	54	19.3	19.3	> 31.2	2.8	2.8						
C=C(C(=O)OCCN1CCN(c2ccccc2)CC1)[C@@H]1CC[C@H](C)[C@@H]2CC(=O)C(C)=C2C1	445	49.4	49.4	49.4	9	9		9				
C=C(C(=O)OCCCCCCCCCCN1CCN(C)CC1)[C@@H]1CC[C@H](C)[C@@H]2CC(=O)C(C)=C2C1	177	5.2	3.7	> 25.4	47.6	34			Active			
C=C(C(=O)OCCn1cncn1)[C@@H]1CC[C@H](C)[C@@H]2CC(=O)C(C)=C2C1	224	74.9	83.8	> 8	2.68	3						
C=C(C(=O)OCCCN1CCN(C)CC1)[C@@H]1CC[C@H](C)[C@@H]2CC(=O)C(C)=C2C1	667	> 95.5	> 95.5	> 95.5								
C=C(C(=O)OCCCCCCN1CCN(C)CC1)[C@@H]1CC[C@H](C)[C@@H]2CC(=O)C(C)=C2C1	86	> 9.6	> 9.6	> 9.6								
C=C(C(=O)OCCCCCCCCCCn1cncn1)[C@@H]1CC[C@H](C)[C@@H]2CC(=O)C(C)=C2C1	27.1	0.97	0.42	11.3	65	28.1		2.4	Active			
NC(=O)c1ncn([C@@H]2O[C@H](CO)[C@@H](O)[C@H]2O)n1 [RIBAVIRIN]	1280	3.9	1.9	14.7	666	329		86.9				
C=C(C(=O)OCCCCCCn1cncn1)[C@@H]1CC[C@H](C)[C@@H]2CC(=O)C(C)=C2C1	120	14.9	48.2	> 31	2.48	8						

SMILES	CC50 [1] [µM]	IC50 (Influenza A virus [2]) [µM]	IC50 (Influenza A virus [3]) [µM]	IC50 (Influenza B virus [4]) [µM]	selectivity ratio [5]	selectivity ratio [6]	IC50 (Influenza A virus [7]) [µM]	selectivity ratio [8]	inhibition (Influenza A virus [9])	IC50 (Influenza B virus [10]) [µM]	IC50 (Influenza A virus [11]) [µM]	IC50 (Influenza A virus [12]) [µM]
C=C(C(=O)OCCCCN1CCN(c2ccccc2)CC1)[C@@H]1CC[C@H](C)[C@@H]2CC(=O)C(C)=C2C1	415	> 79.8	79.8	> 79.8	5.2							
C=C(C(=O)OCCN1CCN(C)CC1)[C@@H]1CC[C@H](C)[C@@H]2CC(=O)C(C)=C2C1	231	> 33	129	> 33	1.8							
C=C(C(=O)OCCCCCCCCCCN1CCN(c2ccccc2)CC1)[C@@H]1CC[C@H](C)[C@@H]2CC(=O)C(C)=C2C1	456	94	2.4	> 152	188	4.9			Active			
CCOC(=O)C1=C[C@@H](OC(CC)CC)[C@H](NC(C)=O)[C@@H](N)C1 [OSELTAMIVIR PHOSPHATE]	1260	1.1	15.5	> 500	81.3	1140						
C=C(C(=O)OCCCl)[C@@H]1CC[C@H](C)[C@@H]2CC(=O)C(C)=C2C1										358	27.8	17.2
C=C(C(=O)OCCBr)[C@@H]1CC[C@H](C)[C@@H]2CC(=O)C(C)=C2C1	1360	> 314	> 314	> 314								
C=C(C(=O)OCCCCCN1CCN(C)CC1)[C@@H]1CC[C@H](C)[C@@H]2CC(=O)C(C)=C2C1	207	20.6	17.1	20.6	12.1	10.1		10.1				
C=C(C(=O)OCCCCCCCCn1cncn1)[C@@H]1CC[C@H](C)[C@@H]2CC(=O)C(C)=C2C1	202	5.2	7.2	3.2	28	38.8		62.9				
C=C(C(=O)OCCCCCCCCBr)[C@@H]1CC[C@H](C)[C@@H]2CC(=O)C(C)=C2C1	146	14.1	12.4	> 28.2	11.8	10.4						
C=C(C(=O)OCCCCCCCCN1CCN(c2ccccc2)CC1)[C@@H]1CC[C@H](C)[C@@H]2CC(=O)C(C)=C2C1	333	> 160	92.6	> 160	3.6							
C=C(C(=O)OCCCBr)[C@@H]1CC[C@H](C)[C@@H]2CC(=O)C(C)=C2C1	436	> 101	> 101	> 101								
C=C(C(=O)OCCCCn1cncn1)[C@@H]1CC[C@H](C)[C@@H]2CC(=O)C(C)=C2C1	386	42.9	57.6	77.5	6.7	9		5				
C=C(C(=O)OCCCCN1CCN(C)CC1)[C@@H]1CC[C@H](C)[C@@H]2CC(=O)C(C)=C2C1	644	71.5	10.3	> 92.1	62.8	9						
C=C(C(=O)OCCCCCCCCN1CCN(C)CC1)[C@@H]1CC[C@H](C)[C@@H]2CC(=O)C(C)=C2C1	188	> 26.9	> 26.9	> 26.9								
C=C(C(=O)OCCCCCCCCCCBr)[C@@H]1CC[C@H](C)[C@@H]2CC(=O)C(C)=C2C1	138	16.4	6.7	> 26.5	20.5	8.4			Active			
C=C(C(=O)OCCCCCn1cncn1)[C@@H]1CC[C@H](C)[C@@H]2CC(=O)C(C)=C2C1	672	17.3	7.4	17.3	90.8	38.9		38.9				
